Test results taken from patent publication US10226465B2, “Composition for use in increasing engraftment efficacy of haematopoetic stem cells after transplantation” (priority 2015, dated 2019).

What was measured:
[1] = system: lethally irradiated recipient C57Bl/6 (CD45.2+) mice; assay: Homing assay (CD45.1+ donor cells in bone marrow of CD45.2+ recipients, FACS, Example 6); assay type: in vivo
Experimental: The lineage-negative HSPCs were isolated from whole bone marrow cells of donor mice B6.SJL-PtrcAPep3B/Boyl (CD45.1+) using MACS micro beads (see above). The cells were in vitro treated with 10 μM Treprostinil and 30 μM forskolin or vehicle control for 1 h at 37° C. After washing, 0.2×10^6 lineage-negative CD 45.1^+ cells were injected in to the lethally irradiated (10 Gy) recipient C57Bl/6 (CD45.2^+) mice. Recipient mice were also treated in vivo with either Treprostinil (0.15 mg kg 8 h^−1), vildagliptin (10 mg kg^−1) or with the combination of both drugs subcutaneously. Control mice were injected with the same volume of vehicle. The whole bone marrow cells were isolated from recipient mice 16 h after transplantation. After lysis of red blood cells, the cells were stained for CD45.1 and CD45.2 markers. The proportion of CD45.1^+ and CD45.2^+ cells in the bone marrow was determined by flow cytometry.
Given that DPP-IV inhibitors may be a suitable combination partner for Treprostinil, we explored whether the DPP-IV inhibitor vildagliptin enhanced the action of Treprostinil. This was first tested in an approach, which measured the ability of injected HSPCs to home into the bone marrow: HSPCs harvested from the bone marrow of CD 45.1+ donor mice were injected into isogenic CD45.2 recipients. The animals were sacrificed after 16 h and the amount of CD45.1+ cells, which were retrieved from their bone marrows was quantified by FACS.
The recipient mice were then divided in 7 groups. […] Mice allocated to group 3 received only in vitro-treated cells, those in group 4 were subjected—in addition—to in vivo Treprostinil (Trep, 0.15 mg kg^−1 8 h^−1). Mice assigned to group 5 were administered a combined in vivo treatment with Treprostinil (0.15 mg kg−1 8 h−1) and AMD3100 (3.3 mg kg^−1 8 h^−1). Mice in group 5 received in vivo both Treprostinil (0.15 mg kg^−1 8 h^−1) and vildagliptin (10 mg kg^−1/d), and finally mice in group 6 were subjected to in vivo vildagliptin. The ability of CD45.1+cells to home into the bone marrow was assessed after 16 h by analysing the bone marrow of the recipients by FACS. Data are as means±SEM (n=3). Statistical comparisons were done by ANOVA followed by Tukey's multiple comparison.

[2] = system: lethally irradiated recipient BALB/c mice; assay: Bone marrow transplantation (survival of recipient mice, Example 6); assay type: in vivo
Experimental: These were subsequently divided in two groups. Mice allocated to group 1 (n=10) were further subjected to in vivo treatment with Treprostinil (0.15 mg kg^−1 8 h^−1) whereas mice in group 2 (n=10) received both Treprostinil (0.15 mg kg^−1 8 h^−1) and AMD3100 (3.3 mg kg^−1 8 h^−1) by subcutaneous injection every 8 h for 10 days.
Isogenic recipient mice (C57BL/6 or BALB/c) were subjected to lethal irradiation. […] Lin^− (Sca1^+ and c-Kit^+) HSPCs cells were prepared as outlined above and were pretreated ex vivo in the absence and presence of the combination of 10 μM Treprostinil+30 μM forskolin (FSK) for 1 h at 37° C. Thereafter, the cells (1-5*10^5/mouse) were injected via the tail vein. White blood cell counts were determined by FACS, blood samples were collected every 3 to 5 days starting on day 9 (where blood cell count was ˜1 G/L. In some instances, mice (25-30 g) were also treated with (i) Treprostinil (0.15 mg kg 8 h^−1) and vildagliptin (10 mg kg−^1 12 h^−1) or with the combination of both administered subcutaneously every 8 h for 10 days.
If this was the case, the action of vildagliptin ought to be blunted by simultaneous administration of AMD3100/plerixafor. An experiment was done with seven groups of recipient BALB/c mice (5/group). Several of these groups were internal controls, which were included to verify that earlier findings were recapitulated. […] It is stressed that all conditions were tested in parallel, thus a comparison is legitimate.
Murine HPSCs isolated from donor BALB/c mice were treated in vitro with 10 μM Treprostinil and 30 μM forskolin or vehicle (solid line) for 1 h at 37° C. After washing, 2×10^5 cells were injected into lethally irradiated (10 Gy) recipient BALB/c mice. […] Another group of mice (dotted lines/triangles; n=20) received HSPCs pretreated with 10 μM Treprostinil and 30 μM forskolin, and were also treated in vivo with Treprostinil (0.15 mg kg−1 8 h−1). The next group of mice (dotted lines/squares; n=20) again received in vitro HSPCs pretreated with forskolin+Treprostinil and were further treated in vivo with both Treprostinil (0.15 mg kg^−1 8 h^−1) and vildagliptin (10 mg/kg/24 h). Finally, a group of mice (dashed lines/circles; n=20) received in vitro HSPCs pretreated with forskolin+Treprostinil and were treated in vivo with vildagliptin (10 mg kg−1 per day). In vivo treatment was done by subcutaneous injections, it was initiated directly after transplantation and continued for 10 days.

[3] = system: murine haematopoetic progenitor cells; assay: In vitro migration assay (Transwell, towards SDF-1/CXCL12), murine cells; assay type: cell-based; conditions: 100 ng/ml murine SDF-1, 4 h; for SDF-1/CXCL12-induced migration of Treprostinil+forskolin-stimulated cells: 10 μM AMD3100
Experimental: Murine haematopoetic progenitor cells were pretreated in vitro with the combination of 10 μM Treprostinil (Trep) and 30 μM forskolin (Fsk) (Sigma Aldrich, Vienna, Austria) or vehicle for 1 h at 37° C. in growth factor containing stem cell medium [(StemSpan™ (SFEM) (Stemcell technologies, USA) (50 ng/mL murine stem cell factor (SCF), 50 ng/mL fms-like tyrosine kinase-3 ligand (Flt3), 50 ng/mL interleukin 11 (IL11) and 150 ng/mL murine interleukin 3 (mIL3)] purchased from PeproTech (London, United Kingdom)). Thereafter cells were washed and resuspended at 2×10^6 cells/mL in medium.
The cell suspension (0.1 mL containing 2×10^5 cells) was added to the upper chamber of Transwell™ dishes (5 μm pore diameter). The bottom chamber was followed with medium or medium containing 100 ng/ml murine stromal derived factor-1 (SDF-1=CXCL12). Cells were allowed to migrate for 4 h at 37° C. Subsequently, the number of cells recovered from the lower chamber was determined by a cell counter. The number of migrated cells was expressed as percentage of total cells added to the upper chamber.
Hematopoietic stem and progenitor cells were preincubated with Treprostinil (10 μM; T) and forskolin (30 μM; F) for 1 h at 37° C., washed and resuspended at a cell density of 2×10^6 cells/mL. The cell suspension (2×10^5 cells in 0.1 mL) was added to the upper chamber the Transwell™ dish, which contained medium with and without 10 ΞM CXCR4 antagonist AMD3100 (10 μM). The medium in the lower chamber contained 100 ng/ml murine SDF-1. The incubation lasted for 4 h at 37° C.; thereafter cells recovered in the lower chamber were counted as outlined in the legend to FIG. 1. Data shown are means±SEM from three independent experiments carried out in triplicate. Statistically significant differences were assessed by one way ANOVA followed by Dunnett's multiple comparisons (***, p<0.001).

[4] = system: human haematopoetic CD34+ stem and progenitor cells; assay: [3H]cAMP accumulation assay; assay type: cell-based; conditions: for cAMP response after pertussis toxin pretreatment: pertussis toxin 16 h, + 30 μM forskolin
Experimental: Human haematopoetic CD34+ stem and progenitor cells (HSPCs, 4*10^5/mL) were first preincubated for 16 h in the absence presence of 100 ng/ml pertussis toxin (Sigma Aldrich) in X-VIVO15 medium supplemented with growth factors followed by metabolic labelling of the adenine nucleotide pool by an additional 4 h incubation period in [^3H]adenine (Perkin Elmer, 1 μCi/mL) in the X-VIVO15 medium supplemented with growth factors and 10 μg/mL adenosine deaminase (Roche). Thereafter, the cells were challenged with 1 or 10 μM Treprostinil, 1 or 10 μM dimethyl-PGE2 (dmPGE2), forskolin (30 μM) or the combination of forskolin and prostanoids for 30 min. The cells were then pelleted (5 min at 100 g), the medium was removed and the pellet was lysed in ice-cold 2.5% perchloric acid (0.9 mL) containing 0.1 mM cAMP, held on ice for 1 h and neutralized with 4.2 M KOH (0.1 mL). ATP and cAMP were separated by sequential chromatography on columns containing Dowex AG50-X8 and neutral alumina (3).
After metabolic labelling with [3H]adenine, human HSPCs were stimulated with Treprostinil (Trep, 10 μM), dmPGE2 (10 μM) or forskolin (Fsk, 30 μM), the combination of Treprostinil (10 μM) or of dmPGE2 (10 μM) with forskolin (30 μM) as outlined under Materials and Methods. Where indicated HSPCs had been pretreated with pertussis toxin (PTX) for 16 h prior to stimulation. Data are from three independent experiments carried out in triplicate, error bars indicate s.e.m. […] This difference was abolished by pertussis toxin pretreatment (ns, not significant).

EP2 receptors = EP2 receptors (Homo sapiens, UniProt P43116); conditions: read-out: Kd for activation of isolated EP2 receptors; cited from earlier work
Chain of EP2 receptors (P43116 whole entry): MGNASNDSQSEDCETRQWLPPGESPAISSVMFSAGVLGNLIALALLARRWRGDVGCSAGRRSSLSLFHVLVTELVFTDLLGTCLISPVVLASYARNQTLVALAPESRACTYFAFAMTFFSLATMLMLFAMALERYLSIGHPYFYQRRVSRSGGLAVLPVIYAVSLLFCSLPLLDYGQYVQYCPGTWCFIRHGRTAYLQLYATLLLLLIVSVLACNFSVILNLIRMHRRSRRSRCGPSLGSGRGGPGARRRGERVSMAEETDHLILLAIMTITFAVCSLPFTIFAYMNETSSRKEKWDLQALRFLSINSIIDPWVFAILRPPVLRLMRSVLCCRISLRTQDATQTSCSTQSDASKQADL

[5] = system: lethally irradiated recipient BALB/c mice; assay: In vivo homing assay (colony formation from recipient bone marrow, Example 4)
[6] = system: lethally irradiated recipient BALB/c mice; assay: In vivo engraftment assay (survival, Example 5); conditions: 0.2×10^6 pretreated cells, 10/group
Experimental: Haematopoetic progenitor cells isolated from bone marrow of donor mice (BALB/c) as outlined in the legend to FIG. 4. The cells were treated in vitro with 10 μM Treprostinil and 30 μM forskolin or vehicle for 1 h at 37° C. After washing, 0.2×10^6 lineage-negative haematopoetic progenitor cells were injected via the tail vein into lethally irradiated (9 Gy) recipient BALB/c mice (10/group). If not pretreated in vitro with the combination of Treprostinil and forskolin, this number of haematopoetic progenitor cells is too low to rescue the recipient animals. Accordingly, the group of mice, which received cells that had not been pretreated, died within the first week (black line, CTRL). The limiting number of haematopoetic stem cells sufficed to rescue 50% of the mice, which had received pretreated cells and were then treated with Treprostinil (3 μg/8 h s.c. for 10 days; red curve labeled in vitro pretreated cells+in vivo treatment of recipient mice with Treprostinil). […] In contrast, mice, which received the combination of Treprostinil (3 μg/8 h) and vildagliptin (10 mg/kg/24 h) had the worst outcome of all recipient mice that had received pretreated cells: only 2 out of ten mice survived (grey line labeled in vitro pretreated cells+in vivo treatment of recipient mice with the combination of Treprostinil and vildagliptin). […]

[7] = pretreated HSPCs, recipients given Treprostinil in vivo plus the named drug (AMD3100 3.3 mg kg-1 8 h-1 or vildagliptin 10 mg kg-1/d)
[8] = seven groups, 5/group, all received 2*10^5 Treprostinil+forskolin-pretreated HSPCs, in vivo treatment as named
[9] = Treprostinil+forskolin-pretreated HSPCs, recipients given one drug in vivo (Treprostinil 0.15 mg kg-1 8 h-1 or vildagliptin 10 mg kg-1/d), 16 h
[10] = Treprostinil+forskolin-treated cells, recipients treated in vivo (Treprostinil 3 μg/8 h, vildagliptin 10 mg/kg/24 h)
[11] = untreated cells, recipients treated in vivo (Treprostinil 3 μg/8 h, vildagliptin 10 mg/kg/24 h) from 24 h before transplantation
[12] = 2*10^5 Treprostinil+forskolin-pretreated HSPCs, in vivo s.c. for 10 days (Treprostinil 0.15 mg kg-1 8 h-1 or vildagliptin 10 mg kg-1 per day), n=20

Row | SMILES | homing of CD45.1+ cells into bone marrow [1, 7] | survival of recipient mice [2, 8] | cAMP response after pertussis toxin pretreatment [4] | homing of CD45.1+ cells into bone marrow [1, 9] | homing into bone marrow (colonies) [5, 10] | homing into bone marrow (colonies) [5, 11] | survival of recipient mice [2, 12] [%] | further results
1 | c1cc(CN2CCCNCCNCCCNCC2)ccc1CN1CCCNCCNCCCNCC1 [AMD3100] | abolished | Enhances Survival | – | – | – | – | – | survival of recipient mice ([2]; pretreated HSPCs, AMD3100 3.3 mg kg-1 8 h-1 concomitant with Treprostinil 0.15 mg kg-1 8 h-1 s.c. 10 days, n=10): all recipient mice eventually succumbed to bone marrow failure; SDF-1/CXCL12-induced migration of Treprostinil+forskolin-stimulated cells [3]: inhibits the SDF-1/CXCL12-induced migration; SDF-1/CXCL12-induced migration of Treprostinil+forskolin-stimulated cells ([3]; listed as plerixafor/AMD3100): blocked
2 | CCCCC(C)(C)[C@H](O)/C=C/[C@H]1[C@H](O)CC(=O)[C@@H]1C/C=C\CCCC(=O)O [dmPGE2, 16,16-dimethyl PGE2] | – | – | increased the response to dmPGE2 | – | – | – | – | Kd (EP2 receptors): ~1 nM
3 | N#C[C@@H]1CCCN1C(=O)CNC12CC3CC(CC(O)(C3)C1)C2 [vildagliptin] | abrigated the homing effect of Treprostinil | fared best | – | most pronounced increase in homing | promoted homing | did not promote homing | 100 | homing of CD45.1+ cells into bone marrow ([1]; untreated HSPCs, recipients given vildagliptin 10 mg kg-1/d in vivo): did not enhance homing; mice survived ([6]; in vivo s.c. for 10 days (vildagliptin 10 mg/24 h; combination Treprostinil 3 μg/8 h + vildagliptin 10 mg/kg/24 h)): 10 out of 10; SDF-1/CXCL12-induced migration of Treprostinil+forskolin-preincubated cells ([3]; 30 nM vildagliptin): enhances the SDF-1/CXCL12-induced migration
4 | CCCCC[C@H](O)CC[C@@H]1[C@H]2Cc3cccc(OCC(=O)[O-])c3C[C@H]2C[C@H]1O.[Na+] [Treprostinil, (1R,2R,3aS,9aS)-[[2,3,3a,4,9,9a-hexahydro-2-hydroxy-1-[(3S)-3-hydroxyoctyl]-1H-benz[f]inden-5-yl]oxy]acetic acid monosodium salt] | – | – | no significant difference | increased their homing into the bone marrow | promoted homing | did not promote homing | 60 | cAMP in haematopoetic progenitor cells [4]: stimulates cAMP; cAMP accumulation, efficacy compared ([4]; 10 μM, in the presence of 30 μM forskolin, 30 min): more efficacious than 10 μM dmPGE2; cAMP accumulation, efficacy compared ([4]; absence or presence of 30 μM forskolin): significantly more efficacious than dmPGE2; span of concentration-response curve (cAMP) ([4]; human haematopoetic stem and progenitor cells): more than two orders of magnitude between 10 and 90% of the response; mice rescued ([6]; in vivo Treprostinil 3 μg/8 h s.c. for 10 days): 50%; shape of in vivo dose-response-curve for bone marrow engraftment ([2]; noted previously, higher doses less beneficial than standard dose): bell-shaped
